ChEMBL document CHEMBL2169811, “Oncoepigenomics: making histone lysine methylation count” (Eur J Med Chem, 2012)
Values belong to the compound of their own block, whether it stands above or below them.

How the values were obtained:
[1] = molecular target: T1, Histone-lysine N-methyltransferase EHMT2 (Homo sapiens, UniProt Q96KQ7); assay: Inhibition of G9a
T1 sequence (Q96KQ7 whole entry): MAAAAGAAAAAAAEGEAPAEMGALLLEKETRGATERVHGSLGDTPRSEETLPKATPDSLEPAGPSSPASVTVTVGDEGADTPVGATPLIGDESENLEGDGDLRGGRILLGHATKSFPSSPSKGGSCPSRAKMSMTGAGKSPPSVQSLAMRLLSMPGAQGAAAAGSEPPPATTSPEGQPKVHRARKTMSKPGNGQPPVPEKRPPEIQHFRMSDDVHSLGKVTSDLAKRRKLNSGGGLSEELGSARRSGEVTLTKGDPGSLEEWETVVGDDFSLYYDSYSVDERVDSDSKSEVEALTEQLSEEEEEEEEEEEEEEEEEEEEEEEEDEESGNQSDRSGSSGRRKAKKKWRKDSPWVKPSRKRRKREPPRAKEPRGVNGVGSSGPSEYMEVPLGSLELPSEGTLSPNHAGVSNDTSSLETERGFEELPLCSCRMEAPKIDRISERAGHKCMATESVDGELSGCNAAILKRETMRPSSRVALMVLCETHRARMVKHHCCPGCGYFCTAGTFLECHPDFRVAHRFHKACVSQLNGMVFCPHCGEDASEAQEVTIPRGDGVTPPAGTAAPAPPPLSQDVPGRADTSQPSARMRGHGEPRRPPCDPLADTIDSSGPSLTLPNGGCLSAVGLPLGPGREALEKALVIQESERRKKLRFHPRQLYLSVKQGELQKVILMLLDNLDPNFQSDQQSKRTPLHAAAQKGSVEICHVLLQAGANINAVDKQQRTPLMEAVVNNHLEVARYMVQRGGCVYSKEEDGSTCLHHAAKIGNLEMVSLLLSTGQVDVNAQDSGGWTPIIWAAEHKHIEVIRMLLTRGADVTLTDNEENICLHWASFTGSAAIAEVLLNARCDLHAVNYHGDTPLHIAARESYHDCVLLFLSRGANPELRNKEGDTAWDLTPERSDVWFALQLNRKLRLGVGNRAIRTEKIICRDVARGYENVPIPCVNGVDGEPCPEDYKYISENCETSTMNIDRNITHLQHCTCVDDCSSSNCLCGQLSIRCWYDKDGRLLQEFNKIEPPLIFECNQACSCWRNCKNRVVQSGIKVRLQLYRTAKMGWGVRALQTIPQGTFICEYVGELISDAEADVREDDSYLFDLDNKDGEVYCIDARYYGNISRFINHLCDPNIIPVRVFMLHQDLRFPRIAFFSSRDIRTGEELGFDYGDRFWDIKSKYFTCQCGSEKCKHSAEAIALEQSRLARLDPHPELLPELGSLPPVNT

[2] = molecular target: T2, Histone-lysine N-methyltransferase SUV39H1 (Homo sapiens, UniProt O43463)
T2 sequence (O43463 whole entry): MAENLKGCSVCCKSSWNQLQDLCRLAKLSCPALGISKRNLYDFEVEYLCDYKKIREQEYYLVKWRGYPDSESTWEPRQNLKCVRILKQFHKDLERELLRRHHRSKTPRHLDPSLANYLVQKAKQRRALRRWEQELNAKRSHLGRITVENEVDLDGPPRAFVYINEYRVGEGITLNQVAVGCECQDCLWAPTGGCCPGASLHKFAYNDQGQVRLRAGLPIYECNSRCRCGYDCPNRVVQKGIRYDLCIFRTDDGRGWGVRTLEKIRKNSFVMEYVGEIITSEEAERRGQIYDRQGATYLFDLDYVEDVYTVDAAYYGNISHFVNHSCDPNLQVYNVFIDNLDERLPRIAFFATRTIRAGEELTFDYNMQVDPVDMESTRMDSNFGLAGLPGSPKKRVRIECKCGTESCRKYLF

[3] = molecular target: T2, Histone-lysine N-methyltransferase SUV39H1; assay: Inhibition of SUV39H1 using [3H]-SAM as substrate preincubated for 10 mins before substrate addition measured after 30 mins by scintillation counter
[4] = molecular target: T1, Histone-lysine N-methyltransferase EHMT2; assay: Inhibition of G9a using [3H]-SAM as substrate preincubated for 10 mins before substrate addition measured after 30 mins by scintillation counter
[5] = molecular target: T3, Histone-arginine methyltransferase CARM1 (Homo sapiens, UniProt Q86X55)
T3 sequence (Q86X55 whole entry): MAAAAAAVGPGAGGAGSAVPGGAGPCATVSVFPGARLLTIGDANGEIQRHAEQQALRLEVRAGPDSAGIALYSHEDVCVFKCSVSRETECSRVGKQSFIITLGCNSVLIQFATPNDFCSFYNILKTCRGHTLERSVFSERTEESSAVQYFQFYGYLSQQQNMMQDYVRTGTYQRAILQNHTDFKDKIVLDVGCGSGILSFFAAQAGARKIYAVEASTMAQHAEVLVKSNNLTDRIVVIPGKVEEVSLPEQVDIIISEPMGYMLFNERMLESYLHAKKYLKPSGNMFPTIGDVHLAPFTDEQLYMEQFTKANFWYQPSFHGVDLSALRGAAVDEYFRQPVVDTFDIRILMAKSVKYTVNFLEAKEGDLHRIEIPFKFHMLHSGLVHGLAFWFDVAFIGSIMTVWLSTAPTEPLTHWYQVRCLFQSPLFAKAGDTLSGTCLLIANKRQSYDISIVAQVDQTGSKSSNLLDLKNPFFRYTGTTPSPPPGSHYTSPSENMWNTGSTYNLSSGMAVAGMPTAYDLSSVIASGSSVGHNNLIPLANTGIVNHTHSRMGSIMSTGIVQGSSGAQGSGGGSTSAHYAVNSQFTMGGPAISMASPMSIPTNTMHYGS
Description: Inhibition of human CARM1 expressed in Escherichia coli BL21 (DE3) using [3H]-SAM as substrate preincubated for 10 mins before substrate addition measured after 30 mins by scintillation counter

RKO = assay: Growth inhibition of human RKO cells expressing p53 after 24 to 48 hrs by MTT assay; format: functional
HCT-116 [6] = assay: Growth inhibition of human HCT116 cells after 24 to 48 hrs by MTT assay; format: functional
SH-SY5Y = assay: Growth inhibition of human SH-SY5Y cells after 48 hrs by MTT assay; format: functional
HeLa = assay: Growth inhibition of human HeLa cells after 48 hrs by MTT assay; format: functional
PC-3 = assay: Growth inhibition of human PC3 cells after 48 hrs by MTT assay; format: functional; details: PC-3, 48 h
[7] = Growth inhibition of human KYSE-150 cells after 48 hrs by MTT assay; format: functional; details: KYSE-150, 48 h
HCT-116 [8] = assay: Growth inhibition of human HCT116 cells after 48 hrs by MTT assay; format: functional; details: HCT-116, 48 h
[9] = molecular target: T1, Histone-lysine N-methyltransferase EHMT2
Description: Inhibition of GST-tagged G9a after 1 hr by radioactive filter-binding assay

Homo sapiens [10] = species on record: Homo sapiens; assay: Selectivity ratio of IC50 for SMYD3 to IC50 for human SMYD2
[11] = molecular target: T4, N-lysine methyltransferase SMYD2 (Homo sapiens, UniProt Q9NRG4); assay: Inhibition of full length human SMYD2 amino acid 1 to 433 expressed in Escherichia coli BL21 (DE3) using Biotinaminohexanoyl- GSRAHSSHLKSKKGQSTSRH as substrate after 75 mins by AlphaScreen assay
T4 sequence (Q9NRG4 whole entry): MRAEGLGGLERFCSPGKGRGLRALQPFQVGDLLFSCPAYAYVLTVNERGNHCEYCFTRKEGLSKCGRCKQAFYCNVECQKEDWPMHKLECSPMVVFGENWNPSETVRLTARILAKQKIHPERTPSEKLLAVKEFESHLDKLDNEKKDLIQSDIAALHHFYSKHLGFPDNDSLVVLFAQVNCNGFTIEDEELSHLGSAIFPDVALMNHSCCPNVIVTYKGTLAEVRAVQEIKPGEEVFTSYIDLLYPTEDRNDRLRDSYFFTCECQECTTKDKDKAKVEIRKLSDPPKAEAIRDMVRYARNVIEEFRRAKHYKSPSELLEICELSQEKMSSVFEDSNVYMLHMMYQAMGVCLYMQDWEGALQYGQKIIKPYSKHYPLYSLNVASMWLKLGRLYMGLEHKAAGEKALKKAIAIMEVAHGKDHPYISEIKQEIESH

Homo sapiens [12] = species on record: Homo sapiens; assay: Selectivity ratio of IC50 for SET7/9 to IC50 for human SMYD2
[13] = molecular target: T4, N-lysine methyltransferase SMYD2; assay: Competitive binding affinity to full length human SMYD2 amino acid 1 to 433 expressed in Escherichia coli BL21 (DE3) after 90 mins by radioactive filter-binding assay in presence of P53 peptide
Homo sapiens [14] = species on record: Homo sapiens; assay: Selectivity ratio of IC50 for EZH2 to IC50 for human SMYD2
Homo sapiens [15] = species on record: Homo sapiens; assay: Selectivity ratio of IC50 for G9a to IC50 for human SMYD2
Homo sapiens [16] = species on record: Homo sapiens; assay: Selectivity ratio of IC50 for DOT1L to IC50 for human SMYD2
Homo sapiens [17] = species on record: Homo sapiens; assay: Selectivity ratio of IC50 for GLP to IC50 for human SMYD2
[18] = molecular target: T5, Lysine-specific demethylase 4E (Homo sapiens, UniProt B2RXH2); assay: Inhibition of human JMJD2E
T5 sequence (B2RXH2 whole entry): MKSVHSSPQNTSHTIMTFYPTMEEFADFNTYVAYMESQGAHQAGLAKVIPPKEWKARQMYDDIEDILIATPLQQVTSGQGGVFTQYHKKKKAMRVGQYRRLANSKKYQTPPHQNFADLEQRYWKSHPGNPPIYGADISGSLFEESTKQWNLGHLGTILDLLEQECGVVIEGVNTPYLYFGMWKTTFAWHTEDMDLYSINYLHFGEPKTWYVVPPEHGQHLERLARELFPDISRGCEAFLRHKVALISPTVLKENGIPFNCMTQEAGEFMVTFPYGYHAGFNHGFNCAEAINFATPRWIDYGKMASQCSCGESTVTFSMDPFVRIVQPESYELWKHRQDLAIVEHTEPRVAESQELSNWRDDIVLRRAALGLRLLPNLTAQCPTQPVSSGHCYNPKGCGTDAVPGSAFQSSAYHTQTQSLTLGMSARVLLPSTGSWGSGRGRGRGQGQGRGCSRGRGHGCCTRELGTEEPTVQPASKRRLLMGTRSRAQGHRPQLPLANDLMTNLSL

[19] = molecular target: Protein arginine N-methyltransferase 1 (Homo sapiens, UniProt Q99873)
Chain of Protein arginine N-methyltransferase 1 (Q99873 whole entry): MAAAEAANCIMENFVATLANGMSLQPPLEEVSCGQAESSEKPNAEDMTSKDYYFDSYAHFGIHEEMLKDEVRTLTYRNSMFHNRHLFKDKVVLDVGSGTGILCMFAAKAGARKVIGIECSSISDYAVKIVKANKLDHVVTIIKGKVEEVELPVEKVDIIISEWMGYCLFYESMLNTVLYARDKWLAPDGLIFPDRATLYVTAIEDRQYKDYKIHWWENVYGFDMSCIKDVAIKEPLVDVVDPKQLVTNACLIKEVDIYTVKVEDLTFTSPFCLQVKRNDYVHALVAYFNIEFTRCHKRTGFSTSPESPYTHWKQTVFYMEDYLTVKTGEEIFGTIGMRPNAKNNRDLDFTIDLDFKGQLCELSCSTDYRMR
Description: Inhibition of PRMT1 using [3H]-SAM as substrate preincubated for 10 mins before substrate addition measured after 30 mins by scintillation counter

[20] = molecular target: T5, Lysine-specific demethylase 4E
Description: Inhibition of JMJD2E catalytic domain by mass spectrophotometric analysis

[21] = molecular target: T5, Lysine-specific demethylase 4E; assay: Inhibition of JMJD2E
[22] = molecular target: Lysine-specific histone demethylase 1A (Homo sapiens, UniProt O60341)
Description: Inhibition of full length N-terminal 6x His-tagged human LSD1 expressed in Escherichia coli BL21 (DE3) using H3K4me2 peptide as substrate by luminol dependent chemiluminescence assay

SMILES: CS[C@]1(CO)C(=O)N2[C@H]3C(=CC=C[C@@H]3OC(C)=O)C[C@@]2(SC)C(=O)N1C
IC50 [1]: > 10 µM | IC50 [2]: > 10 µM

SMILES: CNc1ncnc2c1ncn2[C@@H]1O[C@H](CN(CCI)CCC[C@H](N)C(=O)O)[C@@H](O)[C@H]1O
IC50 [3]: > 100 µM | IC50 [4]: > 100 µM | IC50 [5]: > 100 µM

SMILES: N[C@@H]1C[C@H]1c1ccc(OCC[C@H](NC(=O)c2ccccc2)C(=O)NCc2ccccc2)cc1
GI50 (SH-SY5Y): 6 µM | GI50 (HeLa): 6 µM | GI50 (PC-3): 6 µM | GI50 [7]: 6 µM | GI50 (HCT-116 [8]): 6 µM

SMILES: CN1C(=O)[C@]23C[C@@]4([C@@]56C[C@]78SS[C@](CO)(C(=O)N7[C@@H]5Nc5ccccc56)N(C)C8=O)c5ccccc5N[C@H]4N2C(=O)[C@@]1(CO)SS3
IC50 [9]: 1.7 µM

SMILES: CN1C(=O)[C@H]2C[C@]3([C@]45C[C@@H]6C(=O)N(C)[C@H](CO)C(=O)N6[C@H]4Nc4ccccc45)c4ccccc4N[C@@H]3N2C(=O)[C@H]1CO
IC50 [9]: > 50 µM

SMILES: O=C(O)c1ccnc(C(=O)O)c1Nc1ccccc1F
IC50 [18]: 2.5 µM

SMILES: N[C@@H](CCCN(CCI)C[C@H]1O[C@@H](n2cnc3c(NCc4ccccc4)ncnc32)[C@H](O)[C@@H]1O)C(=O)O
IC50 [3]: > 100 µM | IC50 [19]: > 100 µM | IC50 [4]: > 100 µM | IC50 [5]: > 100 µM

SMILES: CN1C(=O)[C@]23CC4=CC=C[C@H](O)[C@H]4N2C(=O)[C@@]1(CO)SS3 [GLIOTOXIN]
IC50 [1]: 0.53 µM | IC50 [2]: 0.26 µM

SMILES: CN1C(=O)[C@@]23C[C@]4([C@]56C[C@@]78SS[C@@](C)(C(=O)N7[C@H]5Nc5ccccc56)N(C)C8=O)c5ccccc5N[C@@H]4N2C(=O)[C@]1(C)SS3
IC50 [1]: 0.63 µM | IC50 [2]: 0.53 µM

Second part, led by results:

GI50 (HCT-116 [6]): 2.5 µM
SMILES: CCNCCCCNCCCCNCCCCNCCCCNC/C=C\CNCCCCNCCCCNCCCCNCCCCNCC
GI50 (RKO): 2.5 µM

GI50 (SH-SY5Y): 6 µM | GI50 (HeLa): 6 µM | GI50 (PC-3): 6 µM | GI50 (HCT-116 [8]): 6 µM
SMILES: NC1CC1c1cccc(OCC[C@H](NC(=O)c2ccccc2)C(=O)NCc2ccccc2)c1 (stereo partly drawn)
GI50 [7]: 6 µM

Ratio IC50 (Homo sapiens [10]): 700 | IC50 [11]: 0.12 µM | Ratio IC50 (Homo sapiens [12]): 700 | Ki [13]: 0.3 µM | Ratio IC50 (Homo sapiens [14]): 700 | Ratio IC50 (Homo sapiens [15]): 700 | Ratio IC50 (Homo sapiens [16]): 700 | Ratio IC50 (Homo sapiens [17]): 700
SMILES: O=C1COc2c(CCNCCN(C(=O)CCNCCc3ccc(Cl)c(Cl)c3)C3CCCCC3)ccc(O)c2N1

IC50 [20]: 0.11 µM
SMILES: O=C(O)c1ccnc(-c2cc(C(=O)NCCc3ccccc3)ccn2)c1

GI50 (HCT-116 [6]): 2.5 µM
SMILES: CCNCCCCNCCCCNCCCCNCCCCNC/C=C/CNCCCCNCCCCNCCCCNCCCCNCC
GI50 (RKO): 2.5 µM

IC50 [20]: 0.18 µM
SMILES: NCCNC(=O)c1ccnc(-c2cc(C(=O)O)ccn2)c1

IC50 [21]: 5.9 µM
SMILES: O=C(O)/C=C/C(=O)N(O)CCCCNCc1ccc(COC(=O)Nc2cccc3ccccc23)cc1
GI50 [7]: 5.1 µM

IC50 [22]: 0.5 µM
SMILES: C/N=C(\NC)NCCCNCCCNCCCN/C(=N/C)NC
